IC50 and inhibition data for eleven compounds are collected here from patent publication US9056865B2, “Pyridine-2-derivatives as smoothened receptor modulators” (Pfizer Inc., priority 2010, dated 2015).

Experiment [1] concerns the target human Smo (Homo sapiens (Human), UniProt Q99835). As to the kind of experiment: Smo radioligand competition binding assay. To be noted: for inhibition at 0.05 µM: 0.05 μM test compound, read-out: Smo % inh. @ 0.05 μM. The procedure, abridged: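 Membranes from HEK293 cells expressing surface human Smo 181-781 (40 μg protein/well) incubated 2 h at room temperature with test compound and tritiated Smo antagonist (3 nM), pH 7.5 Tris buffer; filtration and scintillation counting. Non-specific binding defined with 30 μM cold antagonist; IC50 from four-parameter sigmoidal fit.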

The test system of experiment [2] is Gli-Luc/MEF cells. Nature of the experiment: Gli-Luc/MEF assay. It is filed as cell-based, mouse. To be noted: Mus musculus, MEF; Shh-stimulated luciferase, 48 hours. An outline of the steps: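 Mouse embryonic fibroblasts from Gli-Luc transgenic mice (luciferase under Gli response element) dosed with compounds (final […], 3-fold series), then stimulated with recombinant mouse Shh at final 2 μg/mL. After 48 h at 37 °C, luminescence read by Bright-Glo; IC50 from inhibition of Shh-induced signal.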

Sequence of human Smo (Q99835 181-787): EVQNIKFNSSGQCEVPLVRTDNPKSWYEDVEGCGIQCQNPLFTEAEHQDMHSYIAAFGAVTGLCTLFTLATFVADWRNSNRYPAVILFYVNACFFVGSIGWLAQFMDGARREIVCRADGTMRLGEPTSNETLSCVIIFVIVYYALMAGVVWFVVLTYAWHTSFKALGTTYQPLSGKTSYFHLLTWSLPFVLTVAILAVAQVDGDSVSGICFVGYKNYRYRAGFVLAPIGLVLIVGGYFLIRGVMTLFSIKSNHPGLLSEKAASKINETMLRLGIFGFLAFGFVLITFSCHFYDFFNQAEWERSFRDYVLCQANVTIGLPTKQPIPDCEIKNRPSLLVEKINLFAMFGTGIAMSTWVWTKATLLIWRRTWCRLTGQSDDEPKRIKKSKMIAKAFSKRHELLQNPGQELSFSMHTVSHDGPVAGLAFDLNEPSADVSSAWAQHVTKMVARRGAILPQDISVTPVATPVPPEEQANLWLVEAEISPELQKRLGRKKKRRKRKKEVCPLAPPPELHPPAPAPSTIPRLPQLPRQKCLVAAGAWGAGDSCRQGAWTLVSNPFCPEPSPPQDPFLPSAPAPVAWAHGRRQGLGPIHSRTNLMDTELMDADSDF

`Cc1cccnc1-c1cc(N2CCN(C(=O)C(C)C)CC2)ncc1Cl` [Example A-44, 5′-chloro-2′-(4-isobutyrylpiperazin-1-yl)-3-methyl-2,4′-bipyridine]: the IC50 in experiment [1] came out at 128 nM; in experiment [2] it was 80.2 nM. In addition, the inhibition at 0.05 µM in experiment [1] came out at 82.9%.
The matching figures for `Cc1ccc(-c2nc(N3CCC(NS(C)(=O)=O)CC3)ncc2Cl)nc1` [Example A-119, N-{1-[5-chloro-4-(5-methylpyridin-2-yl)pyrimidin-2-yl]piperidin-4-yl}methanesulfonamide]: 58.9 nM, 22.9 nM and 88.5%.
The like results for `Cc1cnc(-c2ccnc(N3CCN(C(=O)CN4CCOCC4)CC3)c2)c(C)c1` [Example A-157, 1-[4-(3,5-dimethyl-2,4′-bipyridin-2′-yl)piperazin-1-yl]-2-(morpholin-4-yl)ethanone] were, in that order, 14.8 nM, 3.58 nM and 101%.
As to `COCCC(=O)NC1CCN(c2cc(-c3ncccc3C)c(Cl)cn2)CC1` [Example A-27, N-[1-(5′-chloro-3-methyl-2,4′-bipyridin-2′-yl)piperidin-4-yl]-3-methoxypropanamide], the IC50 was found to be 107 nM in experiment [1] and 21.1 nM in experiment [2]. For the same compound, the inhibition at 0.05 µM in experiment [1] stood at 75.7%.
The like results for `Cc1cccnc1-c1cc(N2CCC(C(=O)N3CC(S(=O)(=O)CC4CC4)C3)CC2)ncc1Cl` [Example A-62, 5′-chloro-2′-[4-({3-[(cyclopropylmethyl)sulfonyl]azetidin-1-yl}carbonyl)piperidin-1-yl]-3-methyl-2,4′-bipyridine] were, in that order, 234 nM, 106 nM and 72.4%.
The matching figures for `Cc1cccnc1-c1cc(N2CCC(C(=O)NCCS(C)(=O)=O)CC2)ncc1Cl` [Example A-67, 1-(5′-chloro-3-methyl-2,4′-bipyridin-2′-yl)-N-[2-(methylsulfonyl)ethyl]piperidine-4-carboxamide]: 217 nM, 164 nM and 70.4%.
The matching figures for `Cc1cccnc1-c1cc(N2CCC(CNCCS(C)(=O)=O)CC2)ncc1Cl` [Example A-96, N-{[1-(5′-chloro-3-methyl-2,4′-bipyridin-2′-yl)piperidin-4-yl]methyl}-2-(methylsulfonyl)ethanamine]: 102 nM, 62.5 nM and 84.1%.
Regarding `Cc1cccnc1-c1cc(N2CCC(NC(=O)CC(C)(C)O)CC2)ncc1Cl` [Example A-52, N-(1-(5′-chloro-3-methyl-[2,4′-bipyridin]-2′-yl)piperidin-4-yl)-3-hydroxy-3-methylbutanamide], the IC50 in experiment [1] worked out at 54.3 nM; in experiment [2], 28 nM. In addition, the inhibition at 0.05 µM in experiment [1] turned out to be 90.6%.
The matching figures for `COCCOCC1CCN(c2cc(-c3ncccc3C)c(Cl)cn2)CC1` [Example A-37, 5′-chloro-2′-{4-[(2-methoxyethoxy)methyl]piperidin-1-yl}-3-methyl-2,4′-bipyridine]: 209 nM, 98 nM and 71.6%.
The matching figures for `Cc1cnc(-c2cc(N3CCC(NS(=O)(=O)C4CC4)CC3)ncc2Cl)c(C)c1` [Example A-127, N-[1-(5′-chloro-3,5-dimethyl-2,4′-bipyridin-2′-yl)piperidin-4-yl]cyclopropanesulfonamide]: 11.5 nM, 5.03 nM and 97.8%.
The like results for `COCCS(=O)(=O)NC1CCN(c2ccc(Cl)c(-c3ccccn3)n2)CC1` [Example A-123, N-[1-(3-chloro-2,2′-bipyridin-6-yl)piperidin-4-yl]-2-methoxyethanesulfonamide] were, in that order, 26.7 nM, 14.1 nM and 90.4%.
